Source: ChEMBL document CHEMBL1201862, “PubChem BioAssay data set” (2004)
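48-hour exposure; five concentrations; linearly interpolated endpoints. The concentration for 50% growth inhibition is given as GI50.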 The source made the active and inactive calls. Cut-off read from the data, not from the text of the source: active = GI50 up to about 1.1 µM and inactive = higher.

Assays:
Assay in all cases: NCI tumour cell line growth inhibition, 48 h
SK-MEL-5 = system: SK-MEL-5
SK-OV-3 = system: SK-OV-3
SK-MEL-28 = system: SK-MEL-28
PC-3 = system: PC-3
OVCAR-3 = system: OVCAR-3
SN12C = system: SN12C
MDA-MB-231 = system: MDA-MB-231
RPMI-8226 = system: RPMI-8226
HCT-116 = system: HCT-116
UO-31 = system: UO-31
U-251 = system: U-251
MDA-MB-435 = system: MDA-MB-435
SW-620 = system: SW-620
UACC-257 = system: UACC-257
EKVX = system: EKVX
NCI-H23 = system: NCI-H23
RXF 393 = system: RXF 393
MOLT-4 = system: MOLT-4
HT-29 = system: HT-29

## CCOC(=O)c1c2ccccc2n2c(=O)n(C)nnc12
SK-MEL-5
  GI50: > 100 µM (inactive)
SK-OV-3
  GI50: > 80.5 µM (inactive)
SK-MEL-28
  GI50: > 100 µM (inactive)
PC-3
  GI50: > 100 µM (inactive)
OVCAR-3
  GI50: > 27.9 µM (inactive)
SN12C
  GI50: > 100 µM (inactive)
MDA-MB-231
  GI50: > 100 µM (inactive)
RPMI-8226
  GI50: > 100 µM (inactive)
HCT-116
  GI50: > 100 µM (inactive)
UO-31
  GI50: > 100 µM (inactive)
U-251
  GI50: > 89.1 µM (inactive)
MDA-MB-435
  GI50: > 53.7 µM (inactive)
SW-620
  GI50: > 100 µM (inactive)
UACC-257
  GI50: > 100 µM (inactive)
EKVX
  GI50: 99.8 µM (inactive)
NCI-H23
  GI50: > 100 µM (inactive)
RXF 393
  GI50: > 47.4 µM (inactive)

## COc1cc([C@@H]2c3cc4c(cc3[C@@H](Nc3ccccc3C(=O)c3ccccc3)[C@H]3COC(=O)[C@H]23)OCO4)cc(OC)c1OC
SK-MEL-5
  GI50: 0.475 µM (active)
SK-MEL-28
  GI50: 0.472 µM (active)
MOLT-4
  GI50: 0.38 µM (active)
PC-3
  GI50: 0.622 µM (active)
OVCAR-3
  GI50: 0.785 µM (active)
SN12C
  GI50: 1.9 µM (inactive)
MDA-MB-231
  GI50: 1.81 µM (inactive)
RPMI-8226
  GI50: 0.381 µM (active)
HCT-116
  GI50: 0.321 µM (active)
UO-31
  GI50: 0.776 µM (active)
HT-29
  GI50: 0.314 µM (active)
U-251
  GI50: 0.362 µM (active)
MDA-MB-435
  GI50: 0.27 µM (active)
SW-620
  GI50: 0.471 µM (active)
UACC-257
  GI50: 0.933 µM (active)
EKVX
  GI50: > 54.6 µM (inactive)
NCI-H23
  GI50: 0.668 µM (active)
RXF 393
  GI50: 0.459 µM (active)

## COC(=O)c1c(OC(C)=O)ccc2c1c1c(n2C)C(=O)c2ccccc2C1=O
SK-MEL-5
  GI50: 13.9 µM (inactive)
SK-OV-3
  GI50: 12.9 µM (inactive)
SK-MEL-28
  GI50: 31.8 µM (inactive)
MOLT-4
  GI50: 18.3 µM (inactive)
PC-3
  GI50: 27.2 µM (inactive)
OVCAR-3
  GI50: 17.9 µM (inactive)
SN12C
  GI50: 39.6 µM (inactive)
MDA-MB-231
  GI50: 32.8 µM (inactive)
RPMI-8226
  GI50: 8.15 µM (inactive)
HCT-116
  GI50: 20.5 µM (inactive)
UO-31
  GI50: 21 µM (inactive)
HT-29
  GI50: 46.8 µM (inactive)
U-251
  GI50: 31.3 µM (inactive)
MDA-MB-435
  GI50: 23.9 µM (inactive)
UACC-257
  GI50: 13.1 µM (inactive)
EKVX
  GI50: 28.8 µM (inactive)
NCI-H23
  GI50: 19.7 µM (inactive)
RXF 393
  GI50: 37.1 µM (inactive)

## COc1cc2c3c(n(Cc4ccccc4)c(=O)c2cc1OC)-c1ccccc1C3=O
SK-MEL-5
  GI50: > 100 µM (inactive)
SK-MEL-28
  GI50: > 100 µM (inactive)
MOLT-4
  GI50: 20.5 µM (inactive)
PC-3
  GI50: > 100 µM (inactive)
OVCAR-3
  GI50: > 100 µM (inactive)
SN12C
  GI50: 57.1 µM (inactive)
MDA-MB-231
  GI50: > 100 µM (inactive)
RPMI-8226
  GI50: > 100 µM (inactive)
HCT-116
  GI50: > 100 µM (inactive)
UO-31
  GI50: > 100 µM (inactive)
HT-29
  GI50: > 100 µM (inactive)
U-251
  GI50: 64 µM (inactive)
MDA-MB-435
  GI50: > 100 µM (inactive)
SW-620
  GI50: > 100 µM (inactive)
UACC-257
  GI50: > 100 µM (inactive)
EKVX
  GI50: > 100 µM (inactive)
NCI-H23
  GI50: > 100 µM (inactive)
RXF 393
  GI50: > 100 µM (inactive)

## COc1cc(/C=C2\C[C@H]3[C@@H]4CCc5cc(OCCN6CCCC6)ccc5[C@H]4CC[C@]3(C)C2=O)cc(OC)c1OC
SK-MEL-5
  GI50: 1.53 µM (inactive)
SK-OV-3
  GI50: 2.7 µM (inactive)
MOLT-4
  GI50: 1.31 µM (inactive)
PC-3
  GI50: 1.73 µM (inactive)
SN12C
  GI50: 1.72 µM (inactive)
MDA-MB-231
  GI50: 1.79 µM (inactive)
RPMI-8226
  GI50: 1.66 µM (inactive)
HCT-116
  GI50: 1.54 µM (inactive)
UO-31
  GI50: 1.54 µM (inactive)
MDA-MB-435
  GI50: 1.61 µM (inactive)
SW-620
  GI50: 1.91 µM (inactive)
UACC-257
  GI50: 2.2 µM (inactive)
EKVX
  GI50: 2.39 µM (inactive)
NCI-H23
  GI50: 2.41 µM (inactive)
RXF 393
  GI50: 1.57 µM (inactive)

## COc1ccc(C2CC3(c4ccccc4)ON=C(c4ccccc4)N3c3ccccc3S2)cc1 (stereo unspecified)
SK-MEL-5
  GI50: > 100 µM (inactive)
SK-OV-3
  GI50: > 100 µM (inactive)
SK-MEL-28
  GI50: > 100 µM (inactive)
PC-3
  GI50: > 100 µM (inactive)
OVCAR-3
  GI50: > 100 µM (inactive)
SN12C
  GI50: > 100 µM (inactive)
MDA-MB-231
  GI50: > 100 µM (inactive)
RPMI-8226
  GI50: > 100 µM (inactive)
HCT-116
  GI50: > 100 µM (inactive)
UO-31
  GI50: 51.2 µM (inactive)
HT-29
  GI50: > 100 µM (inactive)
U-251
  GI50: > 100 µM (inactive)
MDA-MB-435
  GI50: > 100 µM (inactive)
SW-620
  GI50: > 100 µM (inactive)
UACC-257
  GI50: > 100 µM (inactive)
EKVX
  GI50: > 100 µM (inactive)
NCI-H23
  GI50: > 100 µM (inactive)
RXF 393
  GI50: > 100 µM (inactive)

## CCn1c(=O)c2nc(SC)sc2n(-c2ccccc2)c1=O
SK-MEL-5
  GI50: > 100 µM (inactive)
SK-OV-3
  GI50: > 100 µM (inactive)
SK-MEL-28
  GI50: > 100 µM (inactive)
MOLT-4
  GI50: > 100 µM (inactive)
PC-3
  GI50: > 100 µM (inactive)
OVCAR-3
  GI50: > 100 µM (inactive)
SN12C
  GI50: > 100 µM (inactive)
MDA-MB-231
  GI50: > 100 µM (inactive)
RPMI-8226
  GI50: > 100 µM (inactive)
HCT-116
  GI50: > 100 µM (inactive)
UO-31
  GI50: 26 µM (inactive)
HT-29
  GI50: > 100 µM (inactive)
U-251
  GI50: > 100 µM (inactive)
MDA-MB-435
  GI50: > 100 µM (inactive)
SW-620
  GI50: > 100 µM (inactive)
UACC-257
  GI50: > 100 µM (inactive)
NCI-H23
  GI50: > 100 µM (inactive)
RXF 393
  GI50: > 100 µM (inactive)

## O=C1NC2CCCCC2N=C1CC(=O)c1ccc(Br)cc1 (stereo unspecified)
SK-MEL-5
  GI50: > 100 µM (inactive)
SK-OV-3
  GI50: 28.2 µM (inactive)
SK-MEL-28
  GI50: > 100 µM (inactive)
MOLT-4
  GI50: 5.61 µM (inactive)
PC-3
  GI50: 32.7 µM (inactive)
OVCAR-3
  GI50: > 100 µM (inactive)
SN12C
  GI50: 27.7 µM (inactive)
MDA-MB-231
  GI50: 16.2 µM (inactive)
RPMI-8226
  GI50: 2.83 µM (inactive)
HCT-116
  GI50: 66.2 µM (inactive)
UO-31
  GI50: 3.86 µM (inactive)
HT-29
  GI50: > 100 µM (inactive)
U-251
  GI50: 20.6 µM (inactive)
MDA-MB-435
  GI50: > 100 µM (inactive)
SW-620
  GI50: > 100 µM (inactive)
UACC-257
  GI50: > 100 µM (inactive)
EKVX
  GI50: 17.8 µM (inactive)
NCI-H23
  GI50: > 100 µM (inactive)
RXF 393
  GI50: 19.5 µM (inactive)
